Measurements from BindingDB's records for patent US10155765 (Merck Sharp & Dohme, 2018).
pIC50: −log10 of the molar value.

Molecular target: T1, Interleukin-1 receptor-associated kinase 4 (Homo sapiens, UniProt Q9NWZ3)
T1 sequence (Q9NWZ3 whole entry): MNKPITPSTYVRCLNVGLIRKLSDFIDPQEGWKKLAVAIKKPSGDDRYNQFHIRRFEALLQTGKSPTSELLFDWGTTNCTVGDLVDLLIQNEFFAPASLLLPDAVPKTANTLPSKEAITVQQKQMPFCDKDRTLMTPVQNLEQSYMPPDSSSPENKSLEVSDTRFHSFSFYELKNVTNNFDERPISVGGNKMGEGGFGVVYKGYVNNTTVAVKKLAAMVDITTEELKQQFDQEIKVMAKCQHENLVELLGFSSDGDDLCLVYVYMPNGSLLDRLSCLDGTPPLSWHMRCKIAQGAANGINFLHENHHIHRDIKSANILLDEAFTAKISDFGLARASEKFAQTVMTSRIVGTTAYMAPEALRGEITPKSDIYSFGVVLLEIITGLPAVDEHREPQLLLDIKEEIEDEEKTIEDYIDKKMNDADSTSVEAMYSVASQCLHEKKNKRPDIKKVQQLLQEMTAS
Experiment: IRAK4 Kinase Assay
Description: The kinase activity of IRAK4 is determined by its ability to catalyze the phosphorylation of a fluorescent polypeptide substrate. The extent of phosphorylation is measured using the IMAP technology (Molecular Devices) where the phosphorylated fluorescent substrate binds to the large M(III)-based nanoparticles which reduces the rotational speed of the substrate and thus increases its fluorescent polarization (FP).20 μL reaction mixture contains 10 mM TriHCl, pH 7.2, 0.5 nM GST tagged IRAK4 (SignalChem), 100 nM fluorescent peptide substrate (RP7030, Molecular Devices), 100 μM ATP, 1 mM DDT, 1 mM MgCl2, and 0.01% Tween 20. The reaction is initiated by the addition of ATP. After incubation for 30 minutes at 25° C., 60 μL of Progressive IMAP Reagent (Molecular Devices) is added to stop the reaction. Change in RP7030's FP is determined by a FP reader (Analyst HT, LJL BioSystems).

Structure (SMILES): NC(=O)c1c(NC(=O)c2cnn3ccc(N4CCNCC4)nc23)cnn1-c1ccncc1 [US10155765, Example 35]
- pIC50: 6.51

Structure (SMILES): CSc1ncc2ccc(C(=O)Nc3cn(C)nc3C(N)=O)n2n1 [US10155765, Example 57]
- pIC50: 6.43
